Measured values as given in patent US5462929A, “Treatment of psoriasis by administration of 4-carbamoyl-1-β-D-ribofuranosylimidszolium-5-oleate” (Asahi Kasei Kogyo Kabushiki Kaisha, priority 1991, dated 1995).
Where two headings read alike, the source gives them in different places.

Experiments:
[1] = tested on: Normal human epidermal keratinocyte cells (NHEK); assay: Growth inhibition on cultured human epidermal keratinocyte cells, Coulter counter method; type: cell-based; conditions: for Number of cells/cm^2: control 95.5
Procedure: (§1) Normal human epidermal keratinocyte cells
(§2) (NHEK: human penile prepuce originated secondary cultured cells)
(§3) (1) NHEK was subcultured according to the instruction described in the manual for Epi Pack, to obtain tertiary subcultured cells. Epi Pack medium on arrival was exchanged by fresh K-C,M to which added attached bovine pituitary gland extract (BPE), then NHEK was cultured at 37° C. and on the first day, tertiary cultivation was performed under the same conditions.
On the day of starting initial cultivation:
NHEK, 2500 cells/cm^2 (5000 cell/well), was inoculated in six 24-well culture plates.
(§4) Cultured, day 5, day 7 and day 9: Photographs were taken on the central part of the two plates of 24-well culture plate, and calculated the number of cells.
On the remaining other plates, the medium was exchanged and mizoribine was added. (amount added: the same as above)
Method of calculating number of cells
On the cultivation, day 5, day 7 and day 9, respectively, one plate of 24-well culture plate was applied for calculating number of cells by Coulter counter, and the other one plate was applied for dye uptake method.
(a) Measurement by Coulter counter
Each well: washed with 0.2 ml of HEPES buffer saline
add 0.2 ml of trypsin/EDTA solution,
allow to stand at room temperature for 10 minutes,
then tap the 24-well culture plate by solid face to remove
added 0.3 ml of trypsin neutralization solution and separated
the cells by pipetting.
calculation of cells by Coulter counter
(counted particles over 7 μm .phi.)

[2] = tested on: Normal human epidermal keratinocyte cells (NHEK); assay: Microscopical observation of cultured keratinocyte cells; type: cell-based; conditions: 0.8 and 4 μg/ml, days 5, 7, 9; ×76.5
Procedure: as §1, §2, §3, §4
Magnification of microscopic photographs is ×76.5 in each case.

psoriasis vulgaris = assay: Clinical trial on treatment of psoriasis (PASI, adverse effect, overall improvement, usefulness); type: in vivo, human; set-up: key to usefulness: 1: extremely useful; 2: useful; 3: slightly useful; 4: useless; 5: worse; key to overall improvement rate: 1: significantly improved; 2: improved; 3: slightly improved; 4: no change; 5: exacerbation; conditions: 300 mg/day oral
Excerpt: 2. Subject: Patients of psoriasis.
(1) Psoriasis vulgaris with median grade which satisfied within the following standard.
a) No consideration for the distinction of sex, inpatient and outpatient.
b) aged over 15 and below 70.
c) PASI [Psoriasis area and Severity Index; Darmtologica, 157; 238-244, 1978: Table 4] over 20 at initial stage of the test.
(2) Following patients are omitted.
b) patients who have suffered with severe bacterial, viral or mycotic infection.
c) person with complication or anamesis of malignant tumor.
d) person with cardiac disorder, renal disorder, blood disorder, gastrointestinal bleeding, peptic ulcer, and other serious complication, and anamesis.
e) a person in pregnancy or in a lactation, and who suspects being pregnant.
f) in addition, persons who are determined by the doctors-in-charge as unfit to participate.
2) Term for dosage: 6 weeks
3) Prohibited other concomitant drugs.
Concomitant use of the following preparation and others are prohibited.
a) Oral dosage of methotrexate, other immunosuppressant, etretinate and steroid preparations.
b) Ultraviolet treatment.
c) Other medicament which seem to be effective for psoriasis [Chinese indigenous medicine (Kampo-Yaku), anti-allergic drug, etc.]
2) Calculation method of PASI:
PASI=0.1 (Eh+Ih+Dh)×Ah+0.3 (Et+It+Dt)×At+0.2 (Eu+Iu+Du)×Au+0.4 (El+Il+Dl)×Al
During the period of administration of the drug, accompanied symptoms, which have newly appeared and were thought to be closely related to and can not be denied with the relation for the administered medicament, are checked and searched in details of the fact, the day appeared, the day disappeared, degree, treatment, result and relation with the test drug, and studied the presence of adverse effect.
On the treatment of administration of the drug after 6 weeks, the results were evaluated.
Considering the progress of PASI, following five degrees of evaluation were applied as compared with the condition before administration.
Considering the overall improvement and safety evaluation such as adverse effect, following five degrees of evaluation were applied.

[3] = tested on: Normal human epidermal keratinocyte cells (NHEK); assay: Growth inhibition on cultured human epidermal keratinocyte cells, Coulter counter method; type: cell-based; conditions: mizoribine over 20 μg/ml, constant level; initial concentration 2.5×10^3 cells/ml
mice = conditions: cited from earlier work
rats = conditions: cited from earlier work
[4] = in vivo; cited from earlier work
[5] = clinical trials; cited from earlier work
[6] = rat; cited from earlier work
[7] = cited from earlier work
[8] = tested on: rejection of the transplantation of an organ such as kidney; conditions: cited from earlier work
[9] = tested on: Normal human epidermal keratinocyte cells (NHEK); assay: Growth inhibition on cultured human epidermal keratinocyte cells, dye uptake method

## NC(=O)c1ncn([C@@H]2O[C@H](CO)[C@@H](O)[C@H]2O)c1O [Mizoribine, 4-carbamoyl-1-β-D-ribofuranosyl-imidazolium-5-olate]
[1]; 0.8 μg/ml, cultivation day 5, Coulter counter
  Number of cells/cm^2: 69.7 ×10^3 cells/cm^2
[1]; 4 μg/ml
  growth inhibition: significant growth inhibition was observed and cells were grown extremely slowly
[1]; 4 μg/ml, cultivation day 5, Coulter counter
  Number of cells/cm^2: 8.6 ×10^3 cells/cm^2
[1]; 8 μg/ml
  growth inhibition: significant growth inhibition was observed
[1]; 20 μg/ml, cultivation day 5, Coulter counter
  Number of cells/cm^2: 4.5 ×10^3 cells/cm^2
[1]; Homo sapiens, NHEK, 120 h, 0.8 μg/ml, cultivation day 5, Coulter counter, read-out: Inhibition rate
  inhibition at 0.8 µg/mL: 27%
[1]; Homo sapiens, NHEK, 120 h, 4 μg/ml, cultivation day 5, Coulter counter, read-out: Inhibition rate
  inhibition at 4 µg/mL: 91%
[1]; Homo sapiens, NHEK, 120 h, 20 μg/ml, cultivation day 5, Coulter counter, read-out: Inhibition rate
  inhibition at 20 µg/mL: 95%
[1]; blood level approximately 1 μg/ml
  inhibition of growth of human epidermal keratinocyte cells at concentration presumed to be reached in clinical use: effective for significant inhibition of growth of human epidermal keratinocyte cells
[2]
  morphology of cells: changed widely expanded shape
Psoriasis vulgaris; after 6 weeks
  overall improvement rate: 2
Psoriasis vulgaris; after 6 weeks, overall improvement and safety
  usefulness: 2
Psoriasis vulgaris; individual patients No. 1-4, 6 weeks
  Adverse effect: None
Psoriasis vulgaris; patient No. 1, PASI pre 20, 6 weeks
  PASI post: 12
Psoriasis vulgaris; patient No. 2, PASI pre 41.4, 6 weeks
  PASI post: 20
Psoriasis vulgaris; patient No. 3, PASI pre 24.3, 6 weeks
  PASI post: 14
Psoriasis vulgaris; patient No. 4, PASI pre 21, 6 weeks
  PASI post: 12
[3]
  number of cells: approximately 4×10^3 cells/ml
mice; female, i.m.
  LD50: > 2800 mg/kg
mice; female, i.v.
  LD50: > 3042 mg/kg
mice; female, p.o.
  LD50: > 4883 mg/kg
mice; female, s.c.
  LD50: > 4883 mg/kg
mice; male, i.m.
  LD50: > 2800 mg/kg
mice; male, i.v.
  LD50: > 3042 mg/kg
mice; male, p.o.
  LD50: > 4883 mg/kg
mice; male, s.c.
  LD50: > 4883 mg/kg
rats; female, i.m.
  LD50: > 2800 mg/kg
rats; female, i.v.
  LD50: > 2606 mg/kg
rats; female, s.c.
  LD50: > 3975 mg/kg
rats; male, i.m.
  LD50: > 2800 mg/kg
rats; male, i.v.
  LD50: > 2572 mg/kg
rats; male, p.o.
  LD50: > 3100 mg/kg
rats; male, s.c.
  LD50: > 4161 mg/kg
[4]
  blood accumulation residue: lower blood accumulation residue
  nephrotoxicity: no nephrotoxicity
  transfer into brain: less transfer into brain
[5]
  Blood level: approximately 1 μg/ml
[6]
  Dermal level compared with plasma level: almost equal in plasma level
[7]
  solubility in water: easily soluble in water
[8]
  immunosuppressive activity / rejection of organ transplantation: suppresses the rejection of the transplantation of an organ such as kidney
[9]; mizoribine addition
  growth inhibition rate, dye uptake method compared with Coulter counter method: slightly lower growth inhibition rate
[9]; where no difference in number of cells vs control by Coulter counter, lower level of concentration
  OD665 value: Significant increase in the value at OD665
